# Source: patent US10351525B2, “Beta lactamase inhibitors” (Oxford University Innovation Limited, priority 2014, dated 2019)
# Legend:
# [1] = system: Galleria mellonella wax moth larvae; test: In vivo toxicity in wax moth larvae model; conditions: doses up to 80 mg/kg
# P. aeruginosa 11 (13) = test: MIC of MEM with and without ML302F (1:8), VIM-2 producer; format: cell-based; conditions: Pseudomonas aeruginosa; P. aeruginosa 11 (13) (VIM-2); MEM alone or with ML302F (1:8)
# Method: (§1) In a further study, antimicrobial activities of MEM and ML302F alone and in combination were assessed in-vitro against 31 VIM-producing clinical isolates.
# P. aeruginosa 11 (14) = test: as above; format: cell-based; conditions: Pseudomonas aeruginosa
# Method: as §1
# P. aeruginosa 12 (14) = test: as above; format: cell-based; conditions: Pseudomonas aeruginosa
# Method: as §1
# P. aeruginosa 13 (14) = test: as above; format: cell-based; conditions: Pseudomonas aeruginosa; P. aeruginosa 13 (14) (VIM-2); MEM alone or with ML302F (1:8)
# Method: as §1
# P. aeruginosa 14 (14) = test: as above; format: cell-based; conditions: Pseudomonas aeruginosa; P. aeruginosa 14 (14) (VIM-2); MEM alone or with ML302F (1:8)
# Method: as §1
# P. aeruginosa 15 (14) = test: as above; format: cell-based; conditions: Pseudomonas aeruginosa; P. aeruginosa 15 (14) (VIM-2); MEM alone or with ML302F (1:8)
# Method: as §1
# P. aeruginosa 16 (14) = test: as above; format: cell-based; conditions: Pseudomonas aeruginosa; P. aeruginosa 16 (14) (VIM-2); MEM alone or with ML302F (1:8)
# Method: as §1
# P. aeruginosa 27 (14) = test: as above; format: cell-based; conditions: Pseudomonas aeruginosa; P. aeruginosa 27 (14) (VIM-2); MEM alone or with ML302F (1:8)
# Method: as §1
# P. aeruginosa 3 (13) = test: as above; format: cell-based; conditions: Pseudomonas aeruginosa; P. aeruginosa 3 (13) (VIM-2); MEM alone or with ML302F (1:8)
# Method: as §1
# P. aeruginosa 30 = test: as above; format: cell-based; conditions: Pseudomonas aeruginosa; P. aeruginosa 30 (VIM-2); MEM alone or with ML302F (1:8)
# Method: as §1
# P. aeruginosa 47 = test: as above; format: cell-based; conditions: Pseudomonas aeruginosa; P. aeruginosa 47 (VIM-2); MEM alone or with ML302F (1:8)
# Method: as §1
# P. aeruginosa 50 = test: as above; format: cell-based; conditions: Pseudomonas aeruginosa; P. aeruginosa 50 (VIM-2); MEM alone or with ML302F (1:8)
# Method: as §1
# P. aeruginosa 6 (14) = test: as above; format: cell-based; conditions: Pseudomonas aeruginosa
# Method: as §1
# P. aeruginosa 8 (13) = test: as above; format: cell-based; conditions: Pseudomonas aeruginosa
# Method: as §1
# P. aeruginosa 9 (13) = test: as above; format: cell-based; conditions: Pseudomonas aeruginosa
# Method: as §1
# P. aeruginosa GR57 [2] = test: as above; format: cell-based; conditions: Pseudomonas aeruginosa; P. aeruginosa GR57 (VIM-2); MEM alone or with ML302F (1:8)
# Method: as §1
# P. aeruginosa GR58 = test: as above; format: cell-based; conditions: Pseudomonas aeruginosa; P. aeruginosa GR58 (VIM-2); MEM alone or with ML302F (1:8)
# Method: as §1
# P. aeruginosa GR62 = test: as above; format: cell-based; conditions: Pseudomonas aeruginosa; P. aeruginosa GR62 (VIM-2); MEM alone or with ML302F (1:8)
# Method: as §1
# P. aeruginosa GR64 = test: as above; format: cell-based; conditions: Pseudomonas aeruginosa; P. aeruginosa GR64 (VIM-2); MEM alone or with ML302F (1:8)
# Method: as §1
# E. cloacae 102 = test: MIC of MEM with and without ML302F (1:8), VIM-4 producer; format: cell-based; conditions: Enterobacter cloacae; E. cloacae 102 (VIM-4); MEM alone or with ML302F (1:8)
# Method: as §1
# K. oxytoca 126 = test: as above; format: cell-based; conditions: Klebsiella oxytoca; K. oxytoca 126 (VIM-4); MEM alone or with ML302F (1:8)
# Method: as §1
# K. oxytoca 95 = test: as above; format: cell-based; conditions: Klebsiella oxytoca; K. oxytoca 95 (VIM-4); MEM alone or with ML302F (1:8)
# Method: as §1
# K. pneumoniae 128 = test: as above; format: cell-based; conditions: Klebsiella pneumoniae; K. pneumoniae 128 (VIM-4); MEM alone or with ML302F (1:8)
# Method: as §1
# E. coli EC98 = test: MEM/ML302F treatment assay in infected G. mellonella larvae; format: in vivo; conditions: EC 98 infection; 96 hrs; MEM 0.6 mg/kg, ML302F 4.8 mg/kg, alone or combined (1:8)
# Method: (§2) The activity of MEM and ML302F alone and in combination were assessed using 16 G. mellonella larva as described by M. Hornsey and D. W. Wareham (Antimicrob. Agents Chemother., 2011, 55(7), 3534-3537). Larvae were inoculated with P. aeruginosa GR57, E. coli EC98 and K. pneumoniae KP120. In combination therapies, a fixed ratio (1:8) of MEM:ML302F containing 0.6 mg/Kg of MEM8 and 4.8 mg/Kg of ML302F was administered in 10 μL injections to infected larvae. PBS injections (10 μL) were used as both controls for no antimicrobial therapy and inoculation injury. Larvae were scored for survival over 96 hrs and kill curves analysed by the log-rank test for trend. Relative risk (RR) of survival between the different treatment arms was calculated using Fisher's exact test with, two-tailed P-values of <0.05 considered statistically significant.
# K. pneumoniae KP120 = test: as above; format: in vivo; conditions: KP 120 infection; 96 hrs; MEM 0.6 mg/kg, ML302F 4.8 mg/kg, alone or combined (1:8)
# Method: as §2
# P. aeruginosa GR57 [3] = test: as above; format: in vivo; conditions: PA GR57 infection; 96 hrs; MEM 0.6 mg/kg, ML302F 4.8 mg/kg, alone or combined (1:8)
# Method: as §2
smiles,measurement,setting,value
"O=C(O)C(S)=Cc1c(Cl)ccc(Cl)c1Cl (racemic) [ML302F, 2-Mercapto-3-(2,3,6-trichlorophenyl)acrylic acid]",In vivo toxicity,"[1]; G. mellonella, injection",non-toxic
same,Survival of all larvae,"[1]; injection into hemocoel, at 96 hrs",100%
"C[C@@H](O)[C@H]1C(=O)N2C(C(=O)O)=C(S[C@@H]3CN[C@H](C(=O)N(C)C)C3)[C@H](C)[C@H]12 [Meropenem, meropenem]",MIC,P. aeruginosa 11 (13),32 µg/mL
same,MIC,P. aeruginosa 11 (14),128 µg/mL
same,MIC,P. aeruginosa 12 (14),128 µg/mL
same,MIC,P. aeruginosa 13 (14),32 µg/mL
same,MIC,P. aeruginosa 14 (14),64 µg/mL
same,MIC,P. aeruginosa 15 (14),64 µg/mL
same,MIC,P. aeruginosa 16 (14),64 µg/mL
same,MIC,P. aeruginosa 27 (14),64 µg/mL
same,MIC,P. aeruginosa 3 (13),64 µg/mL
same,MIC,P. aeruginosa 30,64 µg/mL
same,MIC,P. aeruginosa 47,32 µg/mL
same,MIC,P. aeruginosa 50,32 µg/mL
same,MIC,P. aeruginosa 6 (14),128 µg/mL
same,MIC,P. aeruginosa 8 (13),128 µg/mL
same,MIC,P. aeruginosa 9 (13),128 µg/mL
same,MIC,P. aeruginosa GR57 [2],32 µg/mL
same,MIC,P. aeruginosa GR58,32 µg/mL
same,MIC,P. aeruginosa GR62,32 µg/mL
same,MIC,P. aeruginosa GR64,32 µg/mL
same,MIC,E. cloacae 102,32 µg/mL
same,MIC,K. oxytoca 126,32 µg/mL
same,MIC,K. oxytoca 95,32 µg/mL
same,MIC,K. pneumoniae 128,4 µg/mL
same,% survival of infected larvae,E. coli EC98,44%
same,% survival of infected larvae,K. pneumoniae KP120,69%
same,% survival of infected larvae,P. aeruginosa GR57 [3],23%
